Values quoted from earlier work as cited in US11926624B2 (INTERNATIONAL PAPER COMPANY, priority 2018, dated 2024).
Like-named read-outs stand apart in the source and are kept apart here.

Key:
Renilla Luciferase = target: T1, Renilla Luciferase (Renilla reniformis, UniProt P27652); conditions: for Initial Intensity / Total Light / Aem: with Renilla Luciferase; for Initial Intensity: luminescent intensity as % initial intensity; for Total Light: native = 100
T1 sequence (P27652 1-311): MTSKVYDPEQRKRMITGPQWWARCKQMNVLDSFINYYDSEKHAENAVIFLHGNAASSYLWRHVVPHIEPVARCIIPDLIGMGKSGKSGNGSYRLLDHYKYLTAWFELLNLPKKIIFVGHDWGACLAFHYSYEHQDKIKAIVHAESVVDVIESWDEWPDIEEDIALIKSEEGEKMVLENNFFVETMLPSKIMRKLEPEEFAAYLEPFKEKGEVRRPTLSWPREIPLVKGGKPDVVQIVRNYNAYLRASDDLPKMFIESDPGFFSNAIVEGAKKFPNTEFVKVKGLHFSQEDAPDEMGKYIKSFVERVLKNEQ

[1] = tested on: Gaussia luciferase (Gluc)
aequorin = target: T2, aequorin (Aequorea victoria, UniProt P07164); conditions: for luminescence intensity relative to coelenterazine (native form): coelenterazine-aequorin/apoaequorin complex
T2 sequence (P07164 8-196): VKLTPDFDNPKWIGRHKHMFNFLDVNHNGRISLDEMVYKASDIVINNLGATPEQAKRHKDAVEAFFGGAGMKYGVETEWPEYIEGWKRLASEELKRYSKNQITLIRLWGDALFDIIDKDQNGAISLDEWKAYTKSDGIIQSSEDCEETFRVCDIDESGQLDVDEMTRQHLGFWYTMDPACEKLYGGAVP

Compound	Total Light (Renilla Luciferase) [%]	substrate quality for Renilla luciferase (Renilla Luciferase)	Aem (Renilla Luciferase) [nm]	luminescence intensity relative to coelenterazine (native form) (aequorin)	also measured
8-benzyl-2-(4-hydroxybenzyl)-6-(4-hydroxyphenyl)imidazo[1,2-α]pyrazin-3(7H)-one [coelenterazine]	100				Initial Intensity (Renilla Luciferase; listed as native): 45%; Initial Intensity (Renilla Luciferase; listed as native coelenterazine): about 45%
O=c1c(Cc2ccccc2)nc2c(Cc3ccccc3)[nH]c(-c3ccccc3)cn1-2 [coelenterazine 400a, (2-2′(4-dehydroxy)) coelenterazine]		good substrate			emission maximum (Renilla Luciferase): about 400 nm; oxidation with Gaussia luciferase [1]: does not oxidize well
O=c1c(Cc2ccc(O)cc2)nc2c(CC3CCCC3)[nH]c(-c3ccc(O)cc3)cn1-2 [coelenterazine cp]	23		470		
O=c1c(Cc2ccc(F)cc2)nc2c(Cc3ccccc3)[nH]c(-c3ccc(O)cc3)cn1-2 [coelenterazine f]	28		473	about 20 times	Initial Intensity (Renilla Luciferase): 45%; emission maximum longer than that of the native form (aequorin; coelenterazine-apoaequorin complex): about 8 nm
O=c1c(Cc2ccc(F)cc2)nc2c(CC3CCCC3)[nH]c(-c3ccc(O)cc3)cn1-2 [coelenterazine fcp]		poor substrate		about 135 times	
